Reference: BindingDB's records for doi:10.1111/j.1747-0285.2010.00957.x (Pfizer, 2010)

target: Phosphopantetheine adenylyltransferase (Enterococcus faecalis (strain ATCC 700802 / V583), UniProt Q831P9); test: High-Throughput Screening Assay (Forward Direction Assay)
Protocol: (§1) PPAT screening assay (forward-direction assay) were performed in clear 384 well plates containing in each well either 1-uL DMSO, 1 uL of variable concentrations of test compounds solvated in DMSO or 1 uL of a 100-uM solution of a dipeptide inhibitor of PPAT in DMSO which serves as the fully inhibit control.

Chain of Phosphopantetheine adenylyltransferase (Enterococcus faecalis (strain ATCC 700802 / V583), UniProt Q831P9) (Q831P9 whole entry): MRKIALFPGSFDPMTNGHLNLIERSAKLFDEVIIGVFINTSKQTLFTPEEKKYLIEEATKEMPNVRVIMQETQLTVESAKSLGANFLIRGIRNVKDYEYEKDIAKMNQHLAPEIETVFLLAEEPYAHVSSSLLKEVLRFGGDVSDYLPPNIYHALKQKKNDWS

Row | Compound | IC50 [µM]
1 | O=C(O)c1cc2nc3ccccc3c(=O)n2[nH]1 [7-substituted pyrazoloquinolone, 6] | > 167
2 | Cc1ccc2c(=O)n3[nH]c(C(=O)O)cc3nc2c1 [6-substituted pyrazoloquinolone, 19] | > 167
3 | CN(C)c1ccc2nc3cc(C(=O)O)[nH]n3c(=O)c2c1 [7-substituted pyrazoloquinolone, 16] | 157
4 | Nc1ccc2c(=O)n3[nH]c(C(=O)O)cc3nc2c1 [6-substituted pyrazoloquinolone, 21] | 100
5 | O=C(O)c1cc2nc3ccc(I)cc3c(=O)n2[nH]1 [7-substituted pyrazoloquinolone, 11] | > 137
6 | Cc1c(C(=O)O)[nH]n2c(=O)c3ccc(Cl)cc3nc12 [3-substituted pyrazoloquinolone, 24] | > 167
7 | CC(C)Sc1ccc2nc3cc(C(=O)O)[nH]n3c(=O)c2c1 [7-substituted pyrazoloquinolone, 15] | 249
8 | O=C(O)c1cc2nc3ccc(F)cc3c(=O)n2[nH]1 [7-substituted pyrazoloquinolone, 9] | > 167
9 | O=C(O)c1cc2nc3ccc(Cl)cc3c(=O)n2[nH]1 [7-substituted pyrazoloquinolone, 8] | > 75
10 | O=C(O)c1cc2nc3cc(Cl)ccc3c(=O)n2[nH]1 [6-substituted pyrazoloquinolone, 23] | 212
11 | COc1ccc2nc3cc(C(=O)O)[nH]n3c(=O)c2c1 [7-substituted pyrazoloquinolone, 17] | > 167
12 | O=C(O)c1cc2nc3cc(Br)ccc3c(=O)n2[nH]1 [6-substituted pyrazoloquinolone, 22] | > 167
13 | O=C(O)c1cc2nc3cc(C(F)(F)F)ccc3c(=O)n2[nH]1 [6-substituted pyrazoloquinolone, 20] | > 167
14 | O=C(O)c1cc2nc3ccc(Br)cc3c(=O)n2[nH]1 [7-substituted pyrazoloquinolone, 10] | 209
15 | CSc1ccc2nc3cc(C(=O)O)[nH]n3c(=O)c2c1 [7-substituted pyrazoloquinolone, 12] | > 65
16 | C[S+]([O-])c1ccc2nc3cc(C(=O)O)[nH]n3c(=O)c2c1 (centres undefined) [7-substituted pyrazoloquinolone, 13] | 20

target: T1, Phosphopantetheine adenylyltransferase (Escherichia coli (strain K12), UniProt P0A6I6); test: as above
Protocol: as §1

T1 sequence (P0A6I6 whole entry): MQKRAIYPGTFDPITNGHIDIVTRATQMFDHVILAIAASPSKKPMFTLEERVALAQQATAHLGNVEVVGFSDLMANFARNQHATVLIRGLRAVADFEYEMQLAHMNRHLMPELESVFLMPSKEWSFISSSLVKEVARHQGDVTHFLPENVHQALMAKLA

Row | Compound | IC50 [µM]
17 | O=C(O)c1cc2nc3ccccc3c(=O)n2[nH]1 [7-substituted pyrazoloquinolone, 6] | 253
18 | Cc1ccc2c(=O)n3[nH]c(C(=O)O)cc3nc2c1 [6-substituted pyrazoloquinolone, 19] | 15
19 | CN(C)c1ccc2nc3cc(C(=O)O)[nH]n3c(=O)c2c1 [7-substituted pyrazoloquinolone, 16] | 49
20 | CS(=O)(=O)c1ccc2nc3cc(C(=O)O)[nH]n3c(=O)c2c1 [7-substituted pyrazoloquinolone, 14] | 92
21 | Nc1ccc2c(=O)n3[nH]c(C(=O)O)cc3nc2c1 [6-substituted pyrazoloquinolone, 21] | 121
22 | O=C(O)c1cc2nc3ccc(I)cc3c(=O)n2[nH]1 [7-substituted pyrazoloquinolone, 11] | 5.1
23 | Cc1c(C(=O)O)[nH]n2c(=O)c3ccc(Cl)cc3nc12 [3-substituted pyrazoloquinolone, 24] | 106
24 | CC(C)Sc1ccc2nc3cc(C(=O)O)[nH]n3c(=O)c2c1 [7-substituted pyrazoloquinolone, 15] | 14
25 | O=C(O)c1cc2nc3ccc(F)cc3c(=O)n2[nH]1 [7-substituted pyrazoloquinolone, 9] | 103
26 | Cc1ccc2nc3cc(C(=O)O)[nH]n3c(=O)c2c1 [7-substituted pyrazoloquinolone, 7] | 244
27 | O=C(O)c1cc2nc3ccc(Cl)cc3c(=O)n2[nH]1 [7-substituted pyrazoloquinolone, 8] | 17
28 | O=C(O)c1cc2nc3cc(Cl)ccc3c(=O)n2[nH]1 [6-substituted pyrazoloquinolone, 23] | 49
29 | COc1ccc2nc3cc(C(=O)O)[nH]n3c(=O)c2c1 [7-substituted pyrazoloquinolone, 17] | > 150
30 | O=C(O)c1cc2nc3cc(Br)ccc3c(=O)n2[nH]1 [6-substituted pyrazoloquinolone, 22] | 124
31 | O=C(O)c1cc2nc3cc(C(F)(F)F)ccc3c(=O)n2[nH]1 [6-substituted pyrazoloquinolone, 20] | 54
32 | O=C(O)c1cc2nc3ccc(Br)cc3c(=O)n2[nH]1 [7-substituted pyrazoloquinolone, 10] | 6.2
33 | Cn1c2ccc(Cl)cc2c(=O)n2nc(C(=O)O)cc12 [4-substituted pyrazoloquinolone, 18] | 160
34 | CSc1ccc2nc3cc(C(=O)O)[nH]n3c(=O)c2c1 [7-substituted pyrazoloquinolone, 12] | 13
35 | C[S+]([O-])c1ccc2nc3cc(C(=O)O)[nH]n3c(=O)c2c1 (centres undefined) [7-substituted pyrazoloquinolone, 13] | 166

target: T1, Phosphopantetheine adenylyltransferase; test: Reverse PPAT Assay
Protocol: The reverse assay was performed in polyproplene 96-well plates containing in each well either 1 uL DMSO, 1 µL of variable concentrations of test compounds solvated in DMSO or 1 µL of a 100-uM solution of a dipeptide inhibitor of PPAT in DMSO which serves as control.

Row | Compound | IC50 [µM]
36 | O=C(O)c1cc2nc3ccccc3c(=O)n2[nH]1 [7-substituted pyrazoloquinolone, 6] | > 230
37 | CN(C)c1ccc2nc3cc(C(=O)O)[nH]n3c(=O)c2c1 [7-substituted pyrazoloquinolone, 16] | 7.1
38 | O=C(O)c1cc2nc3ccc(I)cc3c(=O)n2[nH]1 [7-substituted pyrazoloquinolone, 11] | 11
39 | CC(C)Sc1ccc2nc3cc(C(=O)O)[nH]n3c(=O)c2c1 [7-substituted pyrazoloquinolone, 15] | 5
40 | O=C(O)c1cc2nc3cc(Cl)ccc3c(=O)n2[nH]1 [6-substituted pyrazoloquinolone, 23] | 93
41 | O=C(O)c1cc2nc3cc(Br)ccc3c(=O)n2[nH]1 [6-substituted pyrazoloquinolone, 22] | > 125
42 | O=C(O)c1cc2nc3cc(C(F)(F)F)ccc3c(=O)n2[nH]1 [6-substituted pyrazoloquinolone, 20] | 200
43 | O=C(O)c1cc2nc3ccc(Br)cc3c(=O)n2[nH]1 [7-substituted pyrazoloquinolone, 10] | 22
44 | CSc1ccc2nc3cc(C(=O)O)[nH]n3c(=O)c2c1 [7-substituted pyrazoloquinolone, 12] | 8.8
